Read-outs that look alike come from different tables or passages of the source.
What was measured:
[1] = molecular target: NDM-1 (Klebsiella pneumoniae, UniProt C7C422); experiment: biochemical; assay type: biochemical; details: read-out: NDM-1 IC50
[2] = molecular target: IMP-1 (Serratia marcescens, UniProt P52699); experiment: biochemical; assay type: biochemical; details: read-out: IMP-1 IC50
[3] = molecular target: VIM-1 (Pseudomonas aeruginosa (strain ATCC 15692 / DSM 22644 / CIP 104116 / JCM 14847 / LMG 12228 / 1C / PRS 101 / PAO1), UniProt A0A0F7KYQ8); experiment: Enzyme activity: determination of IC50, fluorescence assay with CCF2-FA substrate (VIM-1); assay type: biochemical
[4] = test system: Escherichia coli expressing NDM-1 (CLB30005); experiment: Antibiotic potentiation activity: synergistic concentration (MITC95) with imipenem, OD600 growth; assay type: cell-based; details: for Escherichia coli expressing NDM-1 (CLB 30005) MITC95: concentration giving 95% inhibition of bacterial growth; for Escherichia coli MITC95: Escherichia coli expressing NDM-1 (CLB30005), 95% growth inhibition
Method in brief: (§1)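 Each strain, suspended in saline from overnight colonies and diluted 1:100 into 1.1× CAMHB, is dosed with imipenem at 4 μg/ml (or 1 μg/ml) plus compound, incubated 22–24 h at 35 °C and read by absorbance.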

[5] = test system: Klebsiella pneumoniae expressing VIM-1 (IHMA599644); experiment: as above; assay type: cell-based; details: for Klebsiella pneumoniae expressing VIM-1 (IHMA 599644) MITC95: concentration giving 95% inhibition of bacterial growth; for Klebsiella pneumoniae MITC95: Klebsiella pneumoniae expressing VIM-1 (IHMA599644), 95% growth inhibition
Method in brief: as §1

[6] = test system: Serratia marcescens expressing IMP-1 (CL5741); experiment: as above; assay type: cell-based; details: for Serratia marcescens expressing IMP-1 (CL5741) MITC95: concentration giving 95% inhibition of bacterial growth; for Serratia marcescens MITC95: Serratia marcescens expressing IMP-1 (CL5741), 95% growth inhibition
Method in brief: as §1

[7] = fluorescence assay with CCF2-FA substrate
[8] = fluorescence assay with CCF2-FA substrate, read-out: VIM-1 IC50
[9] = NDM-1 enzyme, CCF2-FA fluorescence assay
[10] = IMP-1 enzyme, CCF2-FA fluorescence assay
[11] = VIM-1 enzyme, CCF2-FA fluorescence assay, read-out: VIM-1 IC50
[12] = VIM-1 IC50, fluorescence assay with CCF2-FA substrate

NDM-1, sequence (C7C422 whole entry, looked up, species assumed): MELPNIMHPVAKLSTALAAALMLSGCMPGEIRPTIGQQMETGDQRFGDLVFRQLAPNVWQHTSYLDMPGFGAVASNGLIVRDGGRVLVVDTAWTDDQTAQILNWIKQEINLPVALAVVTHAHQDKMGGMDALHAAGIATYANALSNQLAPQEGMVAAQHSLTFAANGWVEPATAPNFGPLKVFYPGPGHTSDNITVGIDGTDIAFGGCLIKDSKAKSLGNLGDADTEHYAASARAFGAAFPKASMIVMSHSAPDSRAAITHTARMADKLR
IMP-1, sequence (P52699 whole entry, looked up): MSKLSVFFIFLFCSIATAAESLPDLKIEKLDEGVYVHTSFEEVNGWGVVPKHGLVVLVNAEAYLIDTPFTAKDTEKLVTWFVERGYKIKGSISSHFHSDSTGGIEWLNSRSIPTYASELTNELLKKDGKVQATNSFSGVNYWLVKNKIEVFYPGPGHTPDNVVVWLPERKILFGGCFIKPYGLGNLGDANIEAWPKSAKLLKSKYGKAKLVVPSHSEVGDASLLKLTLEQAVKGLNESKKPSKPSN

Row | Structure (SMILES) | IC50 [1, 7] [nM] | IC50 [2, 7] [nM] | IC50 [3, 8] [nM] | Escherichia coli expressing NDM-1 (CLB 30005) MITC95 [4] [µM] | Klebsiella pneumoniae expressing VIM-1 (IHMA 599644) MITC95 [5] [µM] | Serratia marcescens expressing IMP-1 (CL5741) MITC95 [6] [µM] | IC50 [1, 9] [nM] | IC50 [2, 10] [nM] | IC50 [3, 11] [nM] | Escherichia coli MITC95 [4] [µM] | Klebsiella pneumoniae MITC95 [5] [µM] | Serratia marcescens MITC95 [6] [µM] | IC50 [3, 12] [nM] | IC50 ([3]; VIM-1 IC50, VIM-1 enzyme, CCF2-FA fluorescence assay) [nM]
1 | NS(=O)(=O)c1cccc(-c2ccc(N3CCOCC3)cc2)c1-c1nn[nH]n1 [Example 12] | 3.47 | 41.8 | 95.7 | 3.125 | 200 | 6.25 | – | – | – | – | – | – | – | –
2 | CCCc1ccc(-c2cccc(S(N)(=O)=O)c2-c2nnn[nH]2)cn1 [Example 302, 3-(6-propylpyridin-3-yl)-2-(1H-tetrazol-5-yl)benzenesulfonamide] | – | – | – | – | – | – | 5.85 | 110 | 38.5 | 0.3906 | 150 | 3.906 | – | –
3 | Cc1ccc(-c2cc(-c3ccc4c(c3)CNC4=O)cc(S(N)(=O)=O)c2-c2nn[nH]n2)cc1 [Example 290, 4′-Methyl-5-(1-oxoisoindolin-5-yl)-2-(2H-tetrazol-5-yl)-[1,1′-biphenyl]-3-sulfonamide] | – | – | – | – | – | – | 0.637 | 19.7 | 34.3 | 3.516 | >200 | 19.53 | – | –
4 | NS(=O)(=O)c1cccc(-c2ccc(C(=O)N3CCOCC3)cc2)c1-c1nn[nH]n1 [Example 10, 4′-(morpholin-4-ylcarbonyl)-2-(2H-tetrazol-5-yl)biphenyl-3-sulfonamide] | 3.7 | 62.6 | 986 | 3.125 | >200 | 6.25 | – | – | – | – | – | – | – | –
5 | NS(=O)(=O)c1cccc(-c2ccc(-c3noc(C4CCNC4)n3)cc2)c1-c1nn[nH]n1 (stereo not drawn) [Example 250, 4′-(5-(pyrrolidin-3-yl)-1,2,4-oxadiazol-3-yl)-2-(2H-tetrazol-5-yl)-[1,1′-biphenyl]-3-sulfonamide] | – | – | – | – | – | – | 18 | 109 | 195 | 0.7813 | 100 | 4.688 | – | –
6 | NS(=O)(=O)c1cccc(-c2ccc(C(=O)NC3CC3)cc2)c1-c1nn[nH]n1 [Example 11, N-cyclopropyl-3′-sulfamoyl-2′-(2H-tetrazol-5-yl)biphenyl-4-carboxamide] | 6.42 | 109 | – | 1.563 | >200 | 12.5 | – | – | – | – | – | – | 466 | –
7 | Cc1ccccc1-c1ccnc(S(N)(=O)=O)c1-c1nn[nH]n1 [Example 210, 3-(2H-tetrazol-5-yl)-4-(o-tolyl)pyridine-2-sulfonamide] | 11.8 | 421 | 25.5 | 0.5208 | 15.63 | 25 | – | – | – | – | – | – | – | –
8 | N#Cc1ccc(-c2cccc(S(N)(=O)=O)c2-c2nnn[nH]2)cc1 [Example 308, 4′-cyano-2-(1H-tetrazol-5-yl)-[1,1′-biphenyl]-3-sulfonamide] | – | – | – | – | – | – | 11.3 | 192 | – | 2.344 | 75 | 9.375 | – | 164
9 | CCNC(=O)N1CCC(c2cccc(S(N)(=O)=O)c2-c2nn[nH]n2)CC1 [Example 174, N-ethyl-4-(3-sulfamoyl-2-(2H-tetrazol-5-yl)phenyl)piperidine-1-carboxamide] | 4.54 | 403 | 262 | 2.344 | 100 | 12.5 | – | – | – | – | – | – | – | –
10 | CS(=O)(=O)c1nc2cc(Cl)c(-c3cccc(S(N)(=O)=O)c3-c3nn[nH]n3)cc2[nH]1 [Example 278, 3-(5-chloro-2-(methylsulfonyl)-1H-benzo[d]imidazol-6-yl)-2-(2H-tetrazol-5-yl)benzenesulfonamide] | – | – | – | – | – | – | 8.5 | 536 | 79.1 | 3.125 | 100 | 37.5 | – | –
11 | NS(=O)(=O)c1nccc(-c2ccc(C(=O)O)cc2)c1-c1nnn[nH]1 [Example 183, 4-(2-Sulfamoyl-3-(1H-tetrazol-5-yl)pyridin-4-yl)benzoic acid] | 11.5 | 339 | – | 4.688 | 75 | 50 | – | – | – | – | – | – | 173 | –
12 | NS(=O)(=O)c1cccc(C#Cc2cccnc2)c1-c1nn[nH]n1 [Example 147, 3-(pyridin-3-ylethynyl)-2-(2H-tetrazol-5-yl)benzenesulfonamide] | 16.4 | 103 | 1100 | 3.125 | >200 | 18.75 | – | – | – | – | – | – | – | –
13 | NS(=O)(=O)c1cccc(-c2ccccc2)c1-c1nn[nH]n1 [Example 14, 2-(2H-tetrazol-5-yl)biphenyl-3-sulfonamide] | 5.19 | 172 | 108 | 0.3906 | 100 | 6.25 | – | – | – | – | – | – | – | –
14 | NS(=O)(=O)c1cccc(-c2cccs2)c1-c1nn[nH]n1 [Example 20, 2-(2H-tetrazol-5-yl)-3-thiophen-2-ylbenzenesulfonamide] | 20.4 | 331 | 362 | 1.823 | 166.7 | 18.75 | – | – | – | – | – | – | – | –
15 | Cn1ccc(-c2cccc(S(N)(=O)=O)c2-c2nn[nH]n2)n1 [Example 97, 3-(1-methyl-1H-pyrazol-3-yl)-2-(2H-tetrazol-5-yl)benzenesulfonamide] | 71.1 | 1570 | 1620 | 0.5859 | 200 | 18.75 | – | – | – | – | – | – | – | –
16 | NS(=O)(=O)c1nccc(-c2ccc(N3CCOCC3)nc2)c1-c1nn[nH]n1 [Example 208, 6-morpholino-3′-(2H-tetrazol-5-yl)-[3,4′-bipyridine]-2′-sulfonamide] | 94.7 | 589 | – | 3.646 | >200 | 37.5 | – | – | – | – | – | – | 568 | –
17 | NS(=O)(=O)c1cccc(-c2ccnc(F)c2)c1-c1nn[nH]n1 [Example 46, 3-(2-fluoropyridin-4-yl)-2-(2H-tetrazol-5-yl)benzenesulfonamide] | 14.5 | 302 | 99.1 | 0.5859 | 28.13 | 25 | – | – | – | – | – | – | – | –

— patent US9708336B2, “Metallo-beta-lactamase inhibitors” (priority 2014, dated 2017)
